The term Ki denotes a dissociation constant, usually derived from enzyme kinetics or from competition with a known ligand.

The structures appear in SMILES notation. A value given as a limit tells only on which side of the number the result lay.

In ChEMBL document CHEMBL1777692, “Elucidation of common pharmacophores from analysis of targeted metabolites transported by the multispecific drug transporter-Organic anion transporter1 (Oat1)” (Bioorg Med Chem, 2011) one finds Ki data, which are given here for four compounds.

The target in assay [1] is T1, Solute carrier family 22 member 6 (Rattus norvegicus, UniProt O35956).
T1 sequence (O35956 whole entry): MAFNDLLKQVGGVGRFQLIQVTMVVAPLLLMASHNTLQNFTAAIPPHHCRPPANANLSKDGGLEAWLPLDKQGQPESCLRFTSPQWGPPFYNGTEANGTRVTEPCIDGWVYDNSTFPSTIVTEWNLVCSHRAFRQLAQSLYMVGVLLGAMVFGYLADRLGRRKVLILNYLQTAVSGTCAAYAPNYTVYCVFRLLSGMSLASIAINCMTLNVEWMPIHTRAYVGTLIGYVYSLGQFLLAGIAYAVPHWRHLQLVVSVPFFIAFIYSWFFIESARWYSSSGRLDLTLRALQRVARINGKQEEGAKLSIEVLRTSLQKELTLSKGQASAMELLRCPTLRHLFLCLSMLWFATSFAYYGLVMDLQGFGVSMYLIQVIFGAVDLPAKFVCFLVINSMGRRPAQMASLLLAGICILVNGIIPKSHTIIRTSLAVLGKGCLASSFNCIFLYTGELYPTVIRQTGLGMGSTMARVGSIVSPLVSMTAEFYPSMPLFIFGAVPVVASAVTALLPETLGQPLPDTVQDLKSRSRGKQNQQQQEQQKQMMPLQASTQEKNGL
The assay can be described thus: Inhibition of rat Oat1 expressed in Xenopus oocytes. The assay is classed as cell-based, Oocyte.

Assay [2] has as its target T1, Solute carrier family 22 member 6. Description: Inhibition of rat Oat1 expressed in pig […] cells. The format is cell-based.

`CCSC[C@H](NC(C)=O)C(=O)O` returned a Ki in assay [1] of 1.1 mM.
Regarding `CCc1cccc2c3c([nH]c12)C(CC)(CC(=O)O)OCC3` (centres undefined) [ETODOLAC], in assay [2], the inhibitory constant (Ki) was more than 100 µM.
The same measure, in the same setting: the same measure for `C[C@]12CC[C@@H]3c4ccc(O)cc4CC[C@H]3[C@@H]1CC[C@@H]2O[C@@H]1O[C@H](C(=O)O)[C@@H](O)[C@H](O)[C@H]1O` [ESTRADIOL 17B GLUCURONIDE]: more than 300 µM; for `CC[C@H](C)C(=O)O[C@H]1C[C@H](O)C=C2C=C[C@H](C)[C@H](CC[C@@H](O)C[C@@H](O)CC(=O)O)[C@H]21` [PRAVASTATIN]: 52 µM.
